Assay results taken from patent publication US5480892A, “(N-phthalimidoalkyl)piperidines” (The Du Pont Merck Pharmaceutical Company, priority 1994, dated 1996).
Read-outs that look alike come from different tables or passages of the source.

Columns and labels:
[1] = biological target: T1, Sigma receptor (Cavia porcellus, UniProt Q60492); test: Sigma Receptor Binding Assay; assay type: guinea pig (male Hartley), brain membranes
T1 construct: Brain membranes were prepared by the method of Tam; from tissue; host or cells: guinea pig whole brain membranes
Experimental: Male Hartley guinea pigs (250-300 g, Charles River) were sacrificed by decapitation. […] Whole brains were homogenized (20 sec.) in 10 vol (wt/vol) of ice-cold 0.34 M sucrose with a Brinkmann Polytron (setting 8). The homogenate was centrifuged at 920×g for 10 min. The supernatant was centrifuged at 47,000×g for 20 min. The resulting membrane pellet was resuspended in 10 vol (original wt/vol) of 50 mM Tris HCl (pH 7.4) and incubated at 37° C. for 45 min to degrade and dissociate bound endogenous ligands. The membranes were then centrifuged at 47,000×g for 20 min and resuspended in 50 mM Tris HCl (50 mL per brain).
After 45 rain of incubation at room temperature, samples were filtered rapidly through Whatman GF/C glass filters under negative pressure, and washed 3 times with ice-cold Tris buffer (5 mL).
IC50 s were calculated from log-logit plots. Apparent Ki s were calculated from the equation, Ki =IC50 /[1+(L/Kd)], where L is the concentration of radioligand and Kd is its dissociation constant.

[2] = biological target: T2, Dopamine (D-2) receptor (Cavia porcellus, UniProt H0VE83); test: Dopamine Receptor Binding; assay type: guinea pig, striatum membranes
T2 construct: Membranes were prepared from guinea pig striatum; from tissue; host or cells: guinea pig striatum membranes
Experimental: Membranes were prepared from guinea pig striatum by the method described for sigma receptor binding. The membranes were then resuspended in 50 mM Tris HCl (9 mL per brain).
Nonspecific binding was measured in the presence of 100 nM (+)-butaclamol After 15 min of incubation at 37° C. samples were filtered rapidly through Whatman GF/C glass filters under negative pressure, and washed three times with ice-cold binding buffer (5 mL).

[3] = 1 nM (+)-[3H]SKF 10,047, guinea pig brain membranes, pH 7.4, 45 min room temperature, read-out: Receptor Binding Affinity Sigma (Ki class)
[4] = 0.15 nM [3H]spiperone, guinea pig striatum, pH 7.7, 15 min 37° C., read-out: Receptor Binding Affinity Dopamine (D-2) (Ki class)

T1 sequence (Q60492 whole entry): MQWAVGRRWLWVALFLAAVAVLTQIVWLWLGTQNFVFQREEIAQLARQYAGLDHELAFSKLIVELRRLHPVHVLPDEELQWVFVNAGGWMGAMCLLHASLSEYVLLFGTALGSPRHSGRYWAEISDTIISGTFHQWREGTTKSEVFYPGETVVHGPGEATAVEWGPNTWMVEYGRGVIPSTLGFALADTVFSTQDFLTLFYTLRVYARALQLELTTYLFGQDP
T2 sequence (H0VE83 1-446): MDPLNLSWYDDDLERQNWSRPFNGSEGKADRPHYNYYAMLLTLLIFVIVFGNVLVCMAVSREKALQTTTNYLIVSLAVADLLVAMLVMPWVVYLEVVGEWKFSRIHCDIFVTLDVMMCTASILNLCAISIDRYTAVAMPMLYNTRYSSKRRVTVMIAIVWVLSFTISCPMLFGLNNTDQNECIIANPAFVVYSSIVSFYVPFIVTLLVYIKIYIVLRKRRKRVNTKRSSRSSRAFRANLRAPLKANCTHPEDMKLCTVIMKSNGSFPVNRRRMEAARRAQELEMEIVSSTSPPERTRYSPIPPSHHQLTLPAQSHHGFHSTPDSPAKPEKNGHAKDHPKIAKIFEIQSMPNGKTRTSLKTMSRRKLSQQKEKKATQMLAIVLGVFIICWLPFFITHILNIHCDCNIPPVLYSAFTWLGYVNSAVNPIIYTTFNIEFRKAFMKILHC

| SMILES | Ki [1, 3] | Ki [2, 4] | Ki [1] | Ki [2] |
| --- | --- | --- | --- | --- |
| O=C1C2C3C=CC(C3)C2C(=O)N1CC1CCN(CCc2ccccc2)CC1 (stereo not drawn) [Example 55] | 31 to 100 nM | > 500 nM | – | – |
| O=C1[C@H]2CCCC[C@H]2C(=O)N1CCCC1=CCN(CCc2ccccc2)CC1 [Example 121] | 1 to 30 nM | > 500 nM | – | – |
| O=C1C2C3C=CC(C4C=CC43)C2C(=O)N1CC1(O)CCN(CCc2ccccc2)CC1 (stereo not drawn) [Example 76] | 31 to 100 nM | > 500 nM | – | – |
| O=C1c2ccccc2C(=O)N1CC1CCCN(CCc2ccccc2)C1 (stereo not drawn) [Example 48] | 1 to 30 nM | > 500 nM | – | – |
| O=C1[C@H]2CCCC[C@H]2C(=O)N1CC1CCN(CCc2ccc(Br)cc2)CC1 [Example 30] | 1 to 30 nM | 101 to 500 nM | – | – |
| O=C1[C@H]2CCCC[C@H]2C(=O)N1CC1=CCN(CCc2ccccc2)CC1 [Example 119] | 1 to 30 nM | > 500 nM | – | – |
| O=C1C2C3CC(c4ccccc43)C2C(=O)N1CC1CCN(CCc2ccccc2)CC1 (stereo not drawn) [Example 57] | 1 to 30 nM | > 500 nM | – | – |
| CC1(CN2C(=O)[C@H]3CCCC[C@H]3C2=O)CCN(CCc2ccccc2)CC1 [Example 132, 2-[1-(2-Phenylethyl)-4-(4-methyl)piperidinylmethyl]-cis-3a, 4,5,6,7,7a-hexahydro-1H-isoindole-1,3(2H)-dione] | 1 to 30 nM | > 500 nM | – | – |
| O=C1[C@H]2CCCC[C@H]2C(=O)N1CC1CCN(CCc2ccc([N+](=O)[O-])cc2)CC1 [Example 27] | 1 to 30 nM | > 500 nM | – | – |
| O=C1C2CC=CCC2C(=O)N1CC1CCN(CCc2ccccc2)CC1 (stereo not drawn) [Example 52] | 1 to 30 nM | > 500 nM | – | – |
| O=C1c2ccccc2C(=O)N1CCCC1CCN(Cc2ccccc2)CC1 [Example 43] | 1 to 30 nM | > 500 nM | – | – |
| O=C1c2cccc3cccc(c23)C(=O)N1CCC1CCN(CCc2ccccc2)CC1 [Example 9] | 1 to 30 nM | 101 to 500 nM | – | – |
| O=C1C2C3C=CC(C4CCC34)C2C(=O)N1CC1CCN(CCc2c[nH]c3ccccc23)CC1 (stereo not drawn) [Example 10] | 1 to 30 nM | 31 to 100 nM | – | – |
| O=C1c2ccccc2C(=O)N1CCC1CCN(Cc2ccccc2)CC1 [Example 38] | 1 to 30 nM | > 500 nM | – | – |
| O=C1C2C(c3ccccc3)CCC(c3ccccc3)C2C(=O)N1CC1CCN(CCc2ccccc2)CC1 (stereo not drawn) [Example 68] | 101 to 500 nM | > 500 nM | – | – |
| O=C1[C@H]2CCCC[C@H]2C(=O)N1CC1CCN(CCc2ccc(C(F)(F)F)cc2)CC1 [Example 31] | 101 to 500 nM | > 500 nM | – | – |
| O=C1c2ccccc2C(=O)N1CCCC1=CCN(CCc2ccccc2)CC1 [Example 116] | 31 to 100 nM | > 500 nM | – | – |
| O=C1c2ccccc2C(=O)N1CCC1CCN(Cc2cccc(F)c2)CC1 [Example 40] | 1 to 30 nM | > 500 nM | – | – |
| O=C1[C@H]2CCCC[C@H]2C(=O)N1CC1CCN(CC2CC2)CC1 [Example 21] | 101 to 500 nM | > 500 nM | – | – |
| O=C1[C@H]2CCCC[C@H]2C(=O)N1CC1(c2ccsc2)CCN(CCc2ccccc2)CC1 [Example 128] | – | > 500 nM | 1 to 30 nM | – |
| COc1cccc(C2(CN3C(=O)C4CCCCC4C3=O)CCN(CCc3ccccc3)CC2)c1 (stereo not drawn) [Example 125] | – | – | 31 to 100 nM | > 500 nM |
| O=C1[C@H]2CCCC[C@H]2C(=O)N1CC1(c2csc3ccccc23)CCN(CCc2ccccc2)CC1 [Example 129] | – | 101 to 500 nM | 1 to 30 nM | – |
| O=C1c2ccccc2C(=O)N1CCC1CCN(Cc2ccc(F)cc2)CC1 [Example 41] | 1 to 30 nM | > 500 nM | – | – |
| O=C1[C@H]2CCCC[C@H]2C(=O)N1CC1(c2ccccc2)CCN(CCc2ccccc2)CC1 [Example 122, 2-[1-(2-Phenylethyl)-4-phenyl-4-piperidine-methyl]-cis-3a; 4,5,6,7,7a-hexalydro-1H-isoindole-1,3(2H)-dione] | – | > 500 nM | 1 to 30 nM | – |
| O=C1C2CC(O)C(O)CC2C(=O)N1CC1CCN(CCc2ccccc2)CC1 (stereo not drawn) [Example 63] | > 500 nM | > 500 nM | – | – |
| O=C1C2C3C=CC(C4CCC34)C2C(=O)N1CC1CCN(CCc2ccccc2)CC1 (stereo not drawn) [Example 113] | 31 to 100 nM | – | – | – |
